From patent publication US8952149B2, “Tricyclic tetrahydroquinoline antibacterial agents” (Zoetis LLC, priority 2012, dated 2015)
In brackets after ≈: the same amount, converted by molar mass.

Assays:
S. pyogenes 02C0203 [1] = assay: Neutropenic soft tissue (thigh abscess) infection model; format: in vivo, CF-1 female mice; conditions: thigh tissue 24 hours post-dose
Experimental: In this example, the in vivo antibacterial efficacy of selected compounds was determined in a neutropenic soft tissue infection model in CF-1 female mice challenged with Streptococcus pyogenes 02C0203. With the exception of modifications discussed here, the murine soft tissue infection model was previously described by Craig et al. (6, 7, 8).
CF-1 female mice were immunosuppressed with oral doses of cyclophosphamide in sterile water on Day-4 (150 mg/kg) and Day-1 (100 mg/kg). Mice were infected intramuscularly (thigh muscle) with 7×10^5 cfu of S. pyogenes 02C0203 in 0.1 ml brain heart infusion broth on Day 0. Two hours post-infection, mice received a single oral dose of selected compounds. The compounds were administered orally from a spray dried dispersion (SDD) in 0.5% (wt/v) methylcellulose (MC), 0.5% (wt/v) hydroxypropyl methylcellulose acetate succinate medium, fine powder (HPMCAS-MF) in 20 mM Tris buffer (pH 7.4). Thigh tissue was collected 24 hours post-dose. Serial ten-fold dilutions of tissue homogenates prepared in sterile phosphate buffered saline were plated on 5% sheep blood agar plates for enumeration of bacterial burden.
(§1) Separate groups of immunosuppressed mice were infected as above and orally dosed 2 hours post-infection with 100 mg/kg of the selected compounds. Thigh tissue samples (10% in PBS) and plasma were collected at 0.5, 1, 2, 4, 8 and 24 hours post-dose (n=3) for quantitation of drug levels. Bacterial burden was quantitated in the thigh tissue samples from treated mice and from infected, untreated mice at each timepoint.

S. pyogenes 02C0203 [2] = assay: In vitro MIC testing by microbroth dilution; format: cell-based, Streptococcus pyogenes; conditions: for antibacterial activity (in words): S. pyogenes 02C0203; for MIC: Streptococcus pyogenes, 02C0203, microbroth dilution, 35° C., 16 to 24 hours
Experimental: Except for clarifying or modifying statements, MIC testing followed procedures recommended by the NCCLS^1-2 or followed the descriptions cited below.
At least the following organisms are included in the screen: S. pyogenes 02C0203. Incubations were at 35° C. Stock bacterial cultures were maintained on Tryptic Soy Agar containing 5% Sheep Blood (BD, Becton Dickinson Microbiology Systems, Cockeysville, Md.), anaerobes were maintained on Anaerobic Blood Agar plates—CDC Formulation (BD), and fastidious organisms were maintained on Chocolate Agar II Plates (BD). Specific conditions of handling are listed below.
Frozen stock cultures were used as the initial source of organisms for performing microbroth dilution MIC testing. Stock cultures were passed on their standard growth medium for at least 1 growth cycle (18 to 24 hours) prior to their use.
Most bacteria, unless otherwise noted, were prepared directly from agar plates in 10 mL aliquots of the appropriate broth medium. Bacterial cultures were adjusted to the opacity of a 0.5 McFarland Standard (optical density value of 0.28-0.33 on a Perkin-Elmer Lambda EZ150 Spectrophotometer Wellesley, Mass., set at a wavelength of 600 nm). The adjusted cultures were diluted 400 fold (0.25 mL inoculum+100 mL broth) in growth media to produce a starting suspension of approximately 5×10^5 colony forming units (CFU)/mL. Unless otherwise noted, bacterial strains were tested in cation adjusted Mueller Hinton Broth (CAMHB).
Compounds were solubilized in DMSO. Drug stock solutions were prepared on the day of testing. Drugs were weight corrected for assay content where necessary.
Microbroth dilution stock plates were prepared in two dilution series, 64 to 0.06 μg drug/mL and 0.25 to 0.00025 μg drug/mL. For the high concentration series, 200 μL of stock solution ([…]) was added to duplicate rows of a 96-well microtiter plate. This was used as the first well in the dilution series. Serial two-fold decremental dilutions were made using a BioMek FX robot (Beckman Coulter Inc., Fullerton, Calif.) with 10 of the remaining 11 wells, each of which contained 100 μL of the appropriate solvent/diluent. Row 12 contained solvent/diluent only and served as the control. For tube one of the low concentration series, 200 µL of an 8 μg/mL stock was added to duplicate rows of a 96-well plate. Serial two-fold dilutions were made as described above.
Daughter plates were spotted (3.2 μL/well) from the stock plates listed above using the BioMek FX robot and were either used immediately or frozen at −70° C. until use.
Aerobic organisms were inoculated (100 μL volumes) into the thawed plates using the BioMek FX robot. The inoculated plates were placed in stacks of no more than 5 and covered with an empty plate. These plates were incubated 16 to 24 hours in ambient atmosphere according to CLSI guidelines^2.
After inoculation and incubation, the degree of bacterial growth was estimated visually with the aid of a Test Reading Mirror (Dynex Technologies 220 16) in a darkened room with a single light shining directly through the top of the microbroth tray. The MIC was the lowest concentration of drug that prevented macroscopically visible growth under the conditions of the test. Testing was performed in duplicate. When the MIC values in duplicate tests varied by 1 well (2-fold), the […] values were reported. If the MICs varied by 2 dilutions, the middle value was reported. […]

[3] = Plasma concentrations in infected mice after an oral dose (LC/MS/MS); format: in vivo; conditions: for concentration at 0.5 h / concentration at 1 h / concentration at 2 h / concentration at 4 h / concentration at 8 h / concentration at 24 h: CF-1, mouse, plasma, infected mice (n = 3), oral 100 mg/kg; for oral exposure (in words): mice infected with S. pyogenes 02C0203, 100 mg/kg
Experimental: (§2) In this example, the plasma concentrations of selected compounds were determined in mice that were infected with S. pyogenes 02C0203 at an oral dose of 100 mg/kg^4. Plasma samples were assayed for selected compounds using LC/MS/MS with multiple reaction monitoring. Free fractions were measured using equilibrium dialysis^5.
as §1

S. pyogenes 02C0203 [4] = assay: AUC/MIC ratios required for efficacy (PK-PD); format: in vivo; conditions: free AUC required for efficacy against S. pyogenes 02C0203 in mice
Experimental: as §2, §1

Cc1cc(-c2cc3c(c(F)c2F)N2C[C@@H](C)O[C@@H](C)[C@@H]2C2(C3)C(=O)NC(=O)NC2=O)on1 (single isomer, unassigned) [Example 2]
Log10 geometric mean recoverable cfu (S. pyogenes 02C0203 [1]; single oral dose 12.5 mg/kg): 6.23
Mean log10 cfu reduction vs. infected controls (S. pyogenes 02C0203 [1]; single oral dose 12.5 mg/kg): 0.47
Log10 geometric mean recoverable cfu (S. pyogenes 02C0203 [1]; single oral dose 25 mg/kg): 5.76
Mean log10 cfu reduction vs. infected controls (S. pyogenes 02C0203 [1]; single oral dose 25 mg/kg): 0.94
Log10 geometric mean recoverable cfu (S. pyogenes 02C0203 [1]; single oral dose 50 mg/kg): 5.07
Mean log10 cfu reduction vs. infected controls (S. pyogenes 02C0203 [1]; single oral dose 50 mg/kg): 1.63
Log10 geometric mean recoverable cfu (S. pyogenes 02C0203 [1]; single oral dose 100 mg/kg): 2.11
Mean log10 cfu reduction vs. infected controls (S. pyogenes 02C0203 [1]; single oral dose 100 mg/kg): 4.59
Log10 geometric mean recoverable cfu (S. pyogenes 02C0203 [1]; single oral dose 200 mg/kg): 1.92
Mean log10 cfu reduction vs. infected controls (S. pyogenes 02C0203 [1]; single oral dose 200 mg/kg): 4.78

Cc1coc(-c2cc(F)c3c(c2)CC2(C(=O)NC(=O)NC2=O)[C@H]2[C@H](C)O[C@H](C)CN32)n1 (single isomer, unassigned) [Example 1]
antibacterial activity (in words) (S. pyogenes 02C0203 [2]): antibacterial activity
MIC (S. pyogenes 02C0203 [2]): 1 µg/mL (≈ 2.33 µM)
concentration at 0.5 h [3]: 13500 ng/mL
concentration at 1 h [3]: 13300 ng/mL
concentration at 2 h [3]: 21500 ng/mL
concentration at 4 h [3]: 24500 ng/mL
concentration at 8 h [3]: 7450 ng/mL
concentration at 24 h [3]: 176 ng/mL
oral exposure (in words) [3]: demonstrated oral exposure
Log10 geometric mean recoverable cfu (S. pyogenes 02C0203 [1]; single oral dose 12.5 mg/kg): 6.17
Mean log10 cfu reduction vs. infected controls (S. pyogenes 02C0203 [1]; single oral dose 12.5 mg/kg): 0.53
Log10 geometric mean recoverable cfu (S. pyogenes 02C0203 [1]; single oral dose 25 mg/kg): 5.45
Mean log10 cfu reduction vs. infected controls (S. pyogenes 02C0203 [1]; single oral dose 25 mg/kg): 1.25
Log10 geometric mean recoverable cfu (S. pyogenes 02C0203 [1]; single oral dose 50 mg/kg): 4.60
Mean log10 cfu reduction vs. infected controls (S. pyogenes 02C0203 [1]; single oral dose 50 mg/kg): 2.10
Log10 geometric mean recoverable cfu (S. pyogenes 02C0203 [1]; single oral dose 100 mg/kg): 3.49
Mean log10 cfu reduction vs. infected controls (S. pyogenes 02C0203 [1]; single oral dose 100 mg/kg): 3.21
Log10 geometric mean recoverable cfu (S. pyogenes 02C0203 [1]; single oral dose 200 mg/kg): 2.85
Mean log10 cfu reduction vs. infected controls (S. pyogenes 02C0203 [1]; single oral dose 200 mg/kg): 3.85
Target fAUC (S. pyogenes 02C0203 [4]): 2000 ng·h/mL

CCc1coc(-c2cc3c(c(F)c2F)N2C[C@H](C)O[C@H](C)[C@H]2C2(C3)C(=O)NC(=O)NC2=O)n1 (racemic) [Example 9, (2S,4R,4aR)-8-(4-ethyloxazol-2-yl)-9,10-difluoro-2,4-dimethyl-2,4,4a,6-tetrahydro-1H,1′H-spiro[[1,4]oxazino[4,3-a]quinoline-5,5′-pyrimidine]-2′,4′,6′(3′H)-trione]
antibacterial activity (in words) (S. pyogenes 02C0203 [2]): antibacterial activity
MIC (S. pyogenes 02C0203 [2]): 1 µg/mL (≈ 2.17 µM)
concentration at 0.5 h [3]: 19400 ng/mL
concentration at 1 h [3]: 19000 ng/mL
concentration at 2 h [3]: 23000 ng/mL
concentration at 4 h [3]: 22900 ng/mL
concentration at 8 h [3]: 18100 ng/mL
concentration at 24 h [3]: 2180 ng/mL
oral exposure (in words) [3]: demonstrated oral exposure
Target fAUC (S. pyogenes 02C0203 [4]): 4000 ng·h/mL

Cc1ncc(-c2cc3c(cc2F)N2C[C@@H](C)O[C@@H](C)[C@@H]2C2(C3)C(=O)NC(=O)NC2=O)cn1 [Comparator Compound from the Literature, reference compound]
MIC (S. pyogenes 02C0203 [2]): 2 µg/mL (≈ 4.55 µM)
concentration at 0.5 h [3]: 11100 ng/mL
concentration at 1 h [3]: 17100 ng/mL
concentration at 2 h [3]: 16000 ng/mL
concentration at 4 h [3]: 8530 ng/mL
concentration at 8 h [3]: 3700 ng/mL
concentration at 24 h [3]: 1400 ng/mL
Log10 geometric mean recoverable cfu (S. pyogenes 02C0203 [1]; single oral dose 12.5 mg/kg): 6.48
Mean log10 cfu reduction vs. infected controls (S. pyogenes 02C0203 [1]; single oral dose 12.5 mg/kg): −0.11
Log10 geometric mean recoverable cfu (S. pyogenes 02C0203 [1]; single oral dose 25 mg/kg): 6.52
Mean log10 cfu reduction vs. infected controls (S. pyogenes 02C0203 [1]; single oral dose 25 mg/kg): −0.07
Log10 geometric mean recoverable cfu (S. pyogenes 02C0203 [1]; single oral dose 50 mg/kg): 6.48
Mean log10 cfu reduction vs. infected controls (S. pyogenes 02C0203 [1]; single oral dose 50 mg/kg): −0.11
Log10 geometric mean recoverable cfu (S. pyogenes 02C0203 [1]; single oral dose 100 mg/kg): 4.62
Mean log10 cfu reduction vs. infected controls (S. pyogenes 02C0203 [1]; single oral dose 100 mg/kg): −1.97
Log10 geometric mean recoverable cfu (S. pyogenes 02C0203 [1]; single oral dose 200 mg/kg): 4.32
Mean log10 cfu reduction vs. infected controls (S. pyogenes 02C0203 [1]; single oral dose 200 mg/kg): −2.27
